Experimental data: publication PMC5869712 (Scientific Reports, 2018)

Key:
Assay in all cases: Eurofins Kinase Profiler panel
Type in all cases: biochemical
[1] = biological target: T1, Rsk2 (Homo sapiens, UniProt P51812); settings: read-out: % inhibition (1μM), DMSO control=100%, lower=stronger
T1 construct: purchased Eurofins KinaseProfiler (Eurofins Pharma Discovery Services UK, Dundee); JAK3 also ChemPartner
Excerpt: (§1) The assay protocol guides are commercially available from ChemPartner.

[2] = biological target: T2, CaMKK2 (Homo sapiens, UniProt Q96RR4); settings: read-out: % inhibition (1μM), DMSO control=100%, lower=stronger
T2 construct: purchased Eurofins KinaseProfiler (Eurofins Pharma Discovery Services UK, Dundee); JAK3 also ChemPartner
T2 sequence (Q96RR4 whole entry): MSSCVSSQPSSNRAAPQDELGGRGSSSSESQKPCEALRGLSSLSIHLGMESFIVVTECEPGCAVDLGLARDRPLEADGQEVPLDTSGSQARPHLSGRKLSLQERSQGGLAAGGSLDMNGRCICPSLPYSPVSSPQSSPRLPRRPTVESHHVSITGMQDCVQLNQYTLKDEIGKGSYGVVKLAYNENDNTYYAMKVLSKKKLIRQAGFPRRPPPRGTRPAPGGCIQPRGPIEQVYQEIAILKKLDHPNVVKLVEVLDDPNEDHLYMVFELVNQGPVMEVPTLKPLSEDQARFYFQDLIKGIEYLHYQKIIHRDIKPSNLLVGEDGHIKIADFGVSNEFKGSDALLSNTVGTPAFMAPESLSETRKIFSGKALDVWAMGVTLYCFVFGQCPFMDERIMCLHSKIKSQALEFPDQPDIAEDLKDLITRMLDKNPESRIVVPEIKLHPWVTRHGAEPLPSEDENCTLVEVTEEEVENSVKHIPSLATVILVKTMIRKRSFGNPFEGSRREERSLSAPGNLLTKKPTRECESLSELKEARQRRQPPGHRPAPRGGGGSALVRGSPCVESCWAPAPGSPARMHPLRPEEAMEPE
Excerpt: as §1

[3] = biological target: T3, ROCK-I (Homo sapiens, UniProt Q13464); settings: read-out: % inhibition (1μM), DMSO control=100%, lower=stronger
T3 construct: purchased Eurofins KinaseProfiler (Eurofins Pharma Discovery Services UK, Dundee); JAK3 also ChemPartner
Excerpt: as §1

[4] = biological target: T4, PRK2 (Homo sapiens, UniProt Q16513); settings: read-out: % inhibition (1μM), DMSO control=100%, lower=stronger
T4 construct: purchased Eurofins KinaseProfiler (Eurofins Pharma Discovery Services UK, Dundee); JAK3 also ChemPartner
Excerpt: as §1

[5] = biological target: T5, SAPK4 (Homo sapiens, UniProt O15264); settings: read-out: % inhibition (1μM), DMSO control=100%, lower=stronger
T5 construct: purchased Eurofins KinaseProfiler (Eurofins Pharma Discovery Services UK, Dundee); JAK3 also ChemPartner
Excerpt: as §1

[6] = biological target: T6, ZIPK (Homo sapiens, UniProt O43293); settings: read-out: % inhibition (1μM), DMSO control=100%, lower=stronger
T6 construct: purchased Eurofins Pharma Discovery Services UK Limited (Kinase Profiler screening platform)
Excerpt: as §1

[7] = biological target: T7, PKBα (Homo sapiens, UniProt P31749); settings: read-out: % inhibition (1μM), DMSO control=100%, lower=stronger
T7 construct: purchased Eurofins KinaseProfiler (Eurofins Pharma Discovery Services UK, Dundee); JAK3 also ChemPartner
Excerpt: as §1

[8] = biological target: T8, Wee1 (Homo sapiens, UniProt P30291); settings: read-out: % inhibition (1μM), DMSO control=100%, lower=stronger
T8 construct: purchased Eurofins Pharma Discovery Services UK Limited (Kinase Profiler screening platform)
T8 sequence (P30291 whole entry): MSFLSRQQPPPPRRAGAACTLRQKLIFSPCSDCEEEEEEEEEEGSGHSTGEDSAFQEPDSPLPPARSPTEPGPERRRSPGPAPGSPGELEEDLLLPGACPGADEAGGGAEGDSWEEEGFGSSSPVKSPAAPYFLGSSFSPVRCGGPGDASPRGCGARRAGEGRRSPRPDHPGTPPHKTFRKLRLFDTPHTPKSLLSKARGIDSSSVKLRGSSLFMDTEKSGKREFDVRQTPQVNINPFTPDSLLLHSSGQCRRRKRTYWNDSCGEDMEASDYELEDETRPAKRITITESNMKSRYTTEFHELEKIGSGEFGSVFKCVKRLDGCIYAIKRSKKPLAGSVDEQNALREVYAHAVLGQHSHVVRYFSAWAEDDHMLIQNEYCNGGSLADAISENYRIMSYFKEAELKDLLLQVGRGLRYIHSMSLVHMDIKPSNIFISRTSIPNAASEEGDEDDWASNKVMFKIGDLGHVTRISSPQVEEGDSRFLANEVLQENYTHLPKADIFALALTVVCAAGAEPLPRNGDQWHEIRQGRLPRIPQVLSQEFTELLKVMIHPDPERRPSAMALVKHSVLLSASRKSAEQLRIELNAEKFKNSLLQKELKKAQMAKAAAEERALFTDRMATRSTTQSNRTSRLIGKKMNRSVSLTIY
Excerpt: as §1

[9] = biological target: T9, SAPK2b (Homo sapiens, UniProt Q15759); settings: read-out: % inhibition (1μM), DMSO control=100%, lower=stronger
T9 construct: purchased Eurofins KinaseProfiler (Eurofins Pharma Discovery Services UK, Dundee); JAK3 also ChemPartner
Excerpt: as §1

[10] = biological target: T10, STK33 (Homo sapiens, UniProt Q9BYT3); settings: read-out: % inhibition (1μM), DMSO control=100%, lower=stronger
T10 construct: purchased Eurofins KinaseProfiler (Eurofins Pharma Discovery Services UK, Dundee); JAK3 also ChemPartner
Excerpt: as §1

[11] = biological target: T11, GSK3α (Homo sapiens, UniProt P49840); settings: read-out: % inhibition (1μM), DMSO control=100%, lower=stronger
T11 construct: purchased Eurofins KinaseProfiler (Eurofins Pharma Discovery Services UK, Dundee); JAK3 also ChemPartner
T11 sequence (P49840 whole entry): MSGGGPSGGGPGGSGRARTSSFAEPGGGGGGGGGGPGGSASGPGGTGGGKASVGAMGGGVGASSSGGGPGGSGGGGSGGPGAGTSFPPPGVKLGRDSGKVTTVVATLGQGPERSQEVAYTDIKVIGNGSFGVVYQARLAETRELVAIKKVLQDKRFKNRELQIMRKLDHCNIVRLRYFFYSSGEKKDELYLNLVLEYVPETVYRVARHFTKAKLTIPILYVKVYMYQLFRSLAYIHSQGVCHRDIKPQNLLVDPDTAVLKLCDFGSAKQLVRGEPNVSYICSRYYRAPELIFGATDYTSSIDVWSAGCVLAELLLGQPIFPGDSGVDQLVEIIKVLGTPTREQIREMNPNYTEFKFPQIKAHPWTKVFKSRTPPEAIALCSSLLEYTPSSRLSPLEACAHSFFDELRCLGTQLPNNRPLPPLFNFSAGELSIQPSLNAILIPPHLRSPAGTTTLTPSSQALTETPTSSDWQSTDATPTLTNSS
Excerpt: as §1

[12] = biological target: T12, PAK4 (Homo sapiens, UniProt O96013); settings: read-out: % inhibition (1μM), DMSO control=100%, lower=stronger
T12 construct: purchased Eurofins Pharma Discovery Services UK Limited (Kinase Profiler screening platform)
Excerpt: as §1

[13] = biological target: T13, Mer (Homo sapiens, UniProt Q12866); settings: read-out: % inhibition (1μM), DMSO control=100%, lower=stronger
T13 construct: purchased Eurofins KinaseProfiler (Eurofins Pharma Discovery Services UK, Dundee); JAK3 also ChemPartner
Excerpt: as §1

[14] = biological target: T14, Pim-2 (Homo sapiens, UniProt Q9P1W9); settings: read-out: % inhibition (1μM), DMSO control=100%, lower=stronger
T14 construct: purchased Eurofins KinaseProfiler (Eurofins Pharma Discovery Services UK, Dundee); JAK3 also ChemPartner
Excerpt: as §1

[15] = biological target: T15, SGK (Homo sapiens, UniProt O00141); settings: read-out: % inhibition (1μM), DMSO control=100%, lower=stronger
T15 construct: purchased Eurofins KinaseProfiler (Eurofins Pharma Discovery Services UK, Dundee); JAK3 also ChemPartner
Excerpt: as §1

[16] = biological target: T16, Ret (Homo sapiens, UniProt P07949); settings: read-out: % inhibition (1μM), DMSO control=100%, lower=stronger
T16 construct: purchased Eurofins KinaseProfiler (Eurofins Pharma Discovery Services UK, Dundee); JAK3 also ChemPartner
Excerpt: as §1

[17] = biological target: T17, TrkA (Homo sapiens, UniProt P04629); settings: read-out: % inhibition (1μM), DMSO control=100%, lower=stronger
T17 construct: purchased Eurofins Pharma Discovery Services UK Limited (Kinase Profiler screening platform)
Excerpt: as §1

[18] = biological target: T18, MSK1 (Homo sapiens, UniProt O75582); settings: read-out: % inhibition (1μM), DMSO control=100%, lower=stronger
T18 construct: purchased Eurofins Pharma Discovery Services UK Limited (Kinase Profiler screening platform)
Excerpt: as §1

[19] = biological target: T19, PKG1α (Homo sapiens, UniProt Q13976)
T19 construct: Eurofins Pharma Discovery Services UK Limited (Kinase Profiler service)
T19 sequence (Q13976 whole entry): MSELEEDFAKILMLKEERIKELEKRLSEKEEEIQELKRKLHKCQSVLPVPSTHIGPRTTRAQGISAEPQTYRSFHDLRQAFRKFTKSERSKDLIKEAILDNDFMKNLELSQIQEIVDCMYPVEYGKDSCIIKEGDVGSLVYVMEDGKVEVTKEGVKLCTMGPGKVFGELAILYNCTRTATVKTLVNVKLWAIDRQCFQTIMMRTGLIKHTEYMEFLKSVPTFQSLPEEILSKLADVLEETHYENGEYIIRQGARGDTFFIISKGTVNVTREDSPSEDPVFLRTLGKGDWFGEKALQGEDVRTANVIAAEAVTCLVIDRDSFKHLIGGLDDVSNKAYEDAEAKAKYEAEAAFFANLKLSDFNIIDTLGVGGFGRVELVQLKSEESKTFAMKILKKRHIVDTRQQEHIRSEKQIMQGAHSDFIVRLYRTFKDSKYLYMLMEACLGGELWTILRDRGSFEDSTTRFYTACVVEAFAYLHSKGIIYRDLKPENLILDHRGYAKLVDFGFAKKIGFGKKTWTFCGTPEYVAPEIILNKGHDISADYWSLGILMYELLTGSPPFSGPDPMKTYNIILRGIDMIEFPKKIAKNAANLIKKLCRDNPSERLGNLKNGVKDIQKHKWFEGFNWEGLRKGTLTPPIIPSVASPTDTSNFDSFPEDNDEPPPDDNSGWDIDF
Excerpt: as §1

[20] = biological target: T20, TrkC (Homo sapiens, UniProt Q16288); settings: read-out: % inhibition (1μM), DMSO control=100%, lower=stronger
T20 construct: purchased Eurofins Pharma Discovery Services UK Limited (Kinase Profiler screening platform)
Excerpt: as §1

[21] = biological target: T21, CaMKIIβ (Homo sapiens, UniProt Q13554); settings: read-out: % inhibition (1μM), DMSO control=100%, lower=stronger
T21 construct: purchased Eurofins KinaseProfiler (Eurofins Pharma Discovery Services UK, Dundee); JAK3 also ChemPartner
Excerpt: as §1

[22] = biological target: T22, SAPK2a (Homo sapiens, UniProt Q16539); settings: read-out: % inhibition (1μM), DMSO control=100%, lower=stronger
T22 construct: purchased Eurofins KinaseProfiler (Eurofins Pharma Discovery Services UK, Dundee); JAK3 also ChemPartner
T22 sequence (Q16539 whole entry): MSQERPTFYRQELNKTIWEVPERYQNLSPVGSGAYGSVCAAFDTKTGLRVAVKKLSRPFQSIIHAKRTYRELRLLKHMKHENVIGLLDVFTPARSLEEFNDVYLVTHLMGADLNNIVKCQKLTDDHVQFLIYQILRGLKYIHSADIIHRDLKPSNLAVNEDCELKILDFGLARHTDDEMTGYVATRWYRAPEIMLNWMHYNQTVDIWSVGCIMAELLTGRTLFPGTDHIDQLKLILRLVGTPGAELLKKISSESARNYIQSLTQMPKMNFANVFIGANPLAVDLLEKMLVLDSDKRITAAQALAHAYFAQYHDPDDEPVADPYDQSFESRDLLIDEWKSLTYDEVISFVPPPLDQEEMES
Excerpt: as §1

[23] = biological target: T23, CDK9 (Homo sapiens, UniProt P50750); settings: read-out: % inhibition (1μM), DMSO control=100%, lower=stronger
T23 construct: purchased Eurofins KinaseProfiler (Eurofins Pharma Discovery Services UK, Dundee); JAK3 also ChemPartner
Excerpt: as §1

[24] = biological target: T24, TBK1 (Homo sapiens, UniProt Q9UHD2); settings: read-out: % inhibition (1μM), DMSO control=100%, lower=stronger
T24 construct: purchased Eurofins Pharma Discovery Services UK Limited (Kinase Profiler screening platform)
Excerpt: as §1

[25] = biological target: T25, PKA (Homo sapiens, UniProt P17612); settings: read-out: % inhibition (1μM), DMSO control=100%, lower=stronger
T25 construct: purchased Eurofins KinaseProfiler (Eurofins Pharma Discovery Services UK, Dundee); JAK3 also ChemPartner
Excerpt: as §1

[26] = biological target: T26, Plk3 (Homo sapiens, UniProt Q9H4B4); settings: read-out: % inhibition (1μM), DMSO control=100%, lower=stronger
T26 construct: purchased Eurofins KinaseProfiler (Eurofins Pharma Discovery Services UK, Dundee); JAK3 also ChemPartner
T26 sequence (Q9H4B4 whole entry): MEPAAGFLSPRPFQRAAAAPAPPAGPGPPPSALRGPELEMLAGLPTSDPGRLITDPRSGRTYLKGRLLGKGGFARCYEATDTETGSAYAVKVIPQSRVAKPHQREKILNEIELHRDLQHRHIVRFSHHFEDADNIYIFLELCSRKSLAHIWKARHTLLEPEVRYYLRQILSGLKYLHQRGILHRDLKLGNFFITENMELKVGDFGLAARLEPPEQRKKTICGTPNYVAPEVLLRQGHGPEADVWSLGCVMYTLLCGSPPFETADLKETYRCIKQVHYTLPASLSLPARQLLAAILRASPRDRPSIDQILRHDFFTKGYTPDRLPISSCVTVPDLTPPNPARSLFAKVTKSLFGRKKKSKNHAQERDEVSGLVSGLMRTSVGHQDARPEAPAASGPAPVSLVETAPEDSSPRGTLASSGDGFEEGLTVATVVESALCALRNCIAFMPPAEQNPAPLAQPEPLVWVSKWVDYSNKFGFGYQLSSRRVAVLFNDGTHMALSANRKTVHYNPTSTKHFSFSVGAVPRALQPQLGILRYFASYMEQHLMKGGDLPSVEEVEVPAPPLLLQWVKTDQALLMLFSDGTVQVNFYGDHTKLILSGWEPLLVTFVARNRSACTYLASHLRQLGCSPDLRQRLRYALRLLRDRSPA
Excerpt: as §1

[27] = biological target: T27, Syk (Homo sapiens, UniProt P43405); settings: read-out: % inhibition (1μM), DMSO control=100%, lower=stronger
T27 construct: Eurofins Pharma Discovery Services UK Limited (Kinase Profiler service)
Excerpt: as §1

[28] = biological target: T28, Pim-1 (Homo sapiens, UniProt P11309); settings: read-out: % inhibition (1μM), DMSO control=100%, lower=stronger
T28 construct: purchased Eurofins Pharma Discovery Services UK Limited (Kinase Profiler screening platform)
T28 sequence (P11309 whole entry): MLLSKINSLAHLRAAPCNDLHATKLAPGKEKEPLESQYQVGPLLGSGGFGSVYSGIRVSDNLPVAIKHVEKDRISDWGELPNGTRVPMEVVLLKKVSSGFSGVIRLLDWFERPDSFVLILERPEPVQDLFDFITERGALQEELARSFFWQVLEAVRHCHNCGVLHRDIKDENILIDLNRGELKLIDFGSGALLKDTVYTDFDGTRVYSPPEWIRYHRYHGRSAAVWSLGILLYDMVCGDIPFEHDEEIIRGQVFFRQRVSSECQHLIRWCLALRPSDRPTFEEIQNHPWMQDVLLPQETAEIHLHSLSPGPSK
Excerpt: as §1

[29] = tested on: CK1; settings: read-out: % inhibition (1μM), DMSO control=100%, lower=stronger
Excerpt: as §1

[30] = biological target: T29, CDK6 (Homo sapiens, UniProt Q00534); settings: read-out: % inhibition (1μM), DMSO control=100%, lower=stronger
T29 construct: purchased Eurofins KinaseProfiler (Eurofins Pharma Discovery Services UK, Dundee); JAK3 also ChemPartner
T29 sequence (Q00534 whole entry): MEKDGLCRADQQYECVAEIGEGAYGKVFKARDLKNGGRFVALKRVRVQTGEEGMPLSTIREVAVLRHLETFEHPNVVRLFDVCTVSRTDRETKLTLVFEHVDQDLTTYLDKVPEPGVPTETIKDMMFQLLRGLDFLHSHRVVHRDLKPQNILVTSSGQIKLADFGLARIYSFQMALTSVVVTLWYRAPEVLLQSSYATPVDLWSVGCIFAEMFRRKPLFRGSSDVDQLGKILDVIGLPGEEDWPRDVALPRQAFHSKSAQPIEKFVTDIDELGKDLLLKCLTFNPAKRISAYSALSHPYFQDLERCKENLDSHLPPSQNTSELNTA
T29 sequence (P30281 whole entry partner): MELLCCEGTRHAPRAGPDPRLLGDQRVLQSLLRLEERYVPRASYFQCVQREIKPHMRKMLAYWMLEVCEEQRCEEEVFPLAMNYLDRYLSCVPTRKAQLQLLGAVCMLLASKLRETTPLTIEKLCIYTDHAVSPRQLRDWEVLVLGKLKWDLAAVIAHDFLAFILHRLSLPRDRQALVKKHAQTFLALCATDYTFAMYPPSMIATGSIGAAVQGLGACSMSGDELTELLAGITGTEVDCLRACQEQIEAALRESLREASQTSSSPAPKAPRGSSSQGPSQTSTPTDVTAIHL
Excerpt: as §1

[31] = biological target: T30, TrkB (Homo sapiens, UniProt Q16620); settings: read-out: % inhibition (1μM), DMSO control=100%, lower=stronger
T30 construct: purchased Eurofins Pharma Discovery Services UK Limited (Kinase Profiler screening platform)
Excerpt: as §1

[32] = biological target: T31, PKCζ (Homo sapiens, UniProt Q05513); settings: read-out: % inhibition (1μM), DMSO control=100%, lower=stronger
T31 construct: purchased Eurofins KinaseProfiler (Eurofins Pharma Discovery Services UK, Dundee); JAK3 also ChemPartner
Excerpt: as §1

[33] = biological target: T32, DDR1 (Homo sapiens, UniProt Q08345); settings: read-out: % inhibition (1μM), DMSO control=100%, lower=stronger
T32 construct: purchased Eurofins KinaseProfiler (Eurofins Pharma Discovery Services UK, Dundee); JAK3 also ChemPartner
Excerpt: as §1

[34] = biological target: T33, NEK2 (Homo sapiens, UniProt P51955); settings: read-out: % inhibition (1μM), DMSO control=100%, lower=stronger
T33 construct: purchased Eurofins Pharma Discovery Services UK Limited (Kinase Profiler screening platform)
Excerpt: as §1

[35] = biological target: T34, Src (Homo sapiens, UniProt P12931); settings: read-out: % inhibition (1μM), DMSO control=100%, lower=stronger
T34 construct: purchased Eurofins KinaseProfiler (Eurofins Pharma Discovery Services UK, Dundee); JAK3 also ChemPartner
Excerpt: as §1

[36] = biological target: T35, CLK2 (Homo sapiens, UniProt P49760)
T35 construct: Eurofins Pharma Discovery Services UK Limited (Kinase Profiler service)
T35 sequence (P49760 whole entry): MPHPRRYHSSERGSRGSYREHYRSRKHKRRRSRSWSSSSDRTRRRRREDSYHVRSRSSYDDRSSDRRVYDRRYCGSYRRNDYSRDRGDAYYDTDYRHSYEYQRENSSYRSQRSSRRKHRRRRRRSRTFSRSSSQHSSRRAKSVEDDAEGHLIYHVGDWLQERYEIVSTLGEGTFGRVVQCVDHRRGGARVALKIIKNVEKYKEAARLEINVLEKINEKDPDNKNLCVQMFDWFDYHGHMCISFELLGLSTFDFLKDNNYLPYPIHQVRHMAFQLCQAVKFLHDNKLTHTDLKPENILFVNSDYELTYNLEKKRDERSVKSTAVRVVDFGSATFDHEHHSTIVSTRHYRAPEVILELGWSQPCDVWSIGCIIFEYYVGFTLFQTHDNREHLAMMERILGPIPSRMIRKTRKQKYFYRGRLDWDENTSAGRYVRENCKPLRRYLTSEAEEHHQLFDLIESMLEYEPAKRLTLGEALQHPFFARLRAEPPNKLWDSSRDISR
Excerpt: as §1

[37] = biological target: T36, ROCK-II (Homo sapiens, UniProt O75116); settings: read-out: % inhibition (1μM), DMSO control=100%, lower=stronger
T36 construct: purchased Eurofins KinaseProfiler (Eurofins Pharma Discovery Services UK, Dundee); JAK3 also ChemPartner
Excerpt: as §1

[38] = biological target: T37, CaMKI (Homo sapiens, UniProt Q14012); settings: read-out: % inhibition (1μM), DMSO control=100%, lower=stronger
T37 construct: purchased Eurofins KinaseProfiler (Eurofins Pharma Discovery Services UK, Dundee); JAK3 also ChemPartner
Excerpt: as §1

[39] = biological target: T38, PKCθ (Homo sapiens, UniProt Q04759); settings: read-out: % inhibition (1μM), DMSO control=100%, lower=stronger
T38 construct: purchased Eurofins KinaseProfiler (Eurofins Pharma Discovery Services UK, Dundee); JAK3 also ChemPartner
Excerpt: as §1

[40] = biological target: T39, DYRK1A (Homo sapiens, UniProt Q13627); settings: read-out: % inhibition (1μM), DMSO control=100%, lower=stronger
T39 construct: purchased Eurofins KinaseProfiler (Eurofins Pharma Discovery Services UK, Dundee); JAK3 also ChemPartner
Excerpt: as §1

[41] = biological target: T40, DYRK1B (Homo sapiens, UniProt Q9Y463); settings: read-out: % inhibition (1μM), DMSO control=100%, lower=stronger
T40 construct: Eurofins Pharma Discovery Services UK Limited (Kinase Profiler service)
Excerpt: as §1

[42] = biological target: T41, PDGFRα (Homo sapiens, UniProt P16234); settings: read-out: % inhibition (1μM), DMSO control=100%, lower=stronger
T41 construct: purchased Eurofins Pharma Discovery Services UK Limited (Kinase Profiler screening platform)
Excerpt: as §1

[43] = biological target: T42, TAO1 (Homo sapiens, UniProt Q7L7X3); settings: read-out: % inhibition (1μM), DMSO control=100%, lower=stronger
T42 construct: Eurofins Pharma Discovery Services UK Limited (Kinase Profiler service)
Excerpt: as §1

[44] = read-out: % inhibition (1μM), 1 µM, DMSO control=100%, lower=stronger

C=CC(=O)N[C@@H]1CCCN(c2ncnc3[nH]ccc23)C1 [RB1] gave an activity at 1 µM [1] of 76%, an activity at 1 µM [2] of 101% and an activity at 1 µM [3] of 88%. The activity at 1 µM [4] was 79%, the activity at 1 µM [5] was 95% and the activity at 1 µM [6] was 107%. It also gave an activity at 1 µM [7] of 94%, an activity at 1 µM [8] of 90% and an activity at 1 µM [9] of 103%. It also gave an activity at 1 µM [10] of 93%, an activity at 1 µM [11] of 82% and an activity at 1 µM [12] of 81%. It also gave an activity at 1 µM [13] of 68%, an activity at 1 µM [14] of 98% and an activity at 1 µM [15] of 92%. For the same compound, the activity at 1 µM [16] was 86%, the activity at 1 µM [17] was 46% and the activity at 1 µM [18] was 74%. The IC50 ([19]; estimated) was greater than 800 nM, the activity at 1 µM [19, 44] was 23% and the activity at 1 µM [20] was 75%. For the same compound, the activity at 1 µM [21] was 85%, the activity at 1 µM [22] was 100% and the activity at 1 µM [23] was 101%. It also gave an activity at 1 µM [24] of 96%, an activity at 1 µM [25] of 85% and an activity at 1 µM [26] of 99%. For the same compound, the activity at 1 µM [27] was 104%, the activity at 1 µM [28] was 62% and the activity [29] was 82%. The activity at 1 µM [30] was 100%, the activity at 1 µM [31] was 38% and the activity at 1 µM [32] was 106%. The activity at 1 µM [33] was 75%, the activity at 1 µM [34] was 99% and the activity at 1 µM [35] was 102%. For the same compound, the IC50 ([36]; estimated) was greater than 800 nM, the activity at 1 µM [36, 44] was 18% and the activity at 1 µM [37] was 88%. The activity at 1 µM [38] was 96%, the activity at 1 µM [39] was 80% and the activity at 1 µM [40] was 91%. The activity at 1 µM [41] was 86%, the activity at 1 µM [42] was 96% and the activity at 1 µM [43] was 70%.
